The source of these data is paper PMC6556873, “Rapid Covalent-Probe Discovery by Electrophile-Fragment Screening” (Journal of the American Chemical Society, 2019).

Molecules are shown by their SMILES. Read-outs that look alike come from different tables or passages of the source.

One data set has as its target T1, BSA (Bos taurus, UniProt P02769).
T1 construct: gene ALB
More on the design: Intact protein LC/MS covalent labelling, fragments in pools of five, 200 uM each, 4 °C. To be noted: 24 h, 4 °C, pool of five; 200 µM; covalent.

Another data set addresses T2, NUDT7 (Homo sapiens, UniProt P0C024).
T2 construct: residues 14-235, E. coli, pNIC28-Bsa4, N-terminal His6 tag removed by TEV, construct 26672 Da
Details: Intact protein LC/MS covalent labelling, fragments in pools of five, 200 uM each, 4 °C. To be noted: 24 h, 4 °C, pool of five; 200 µM; covalent.

The target of a further data set is T3, OTUB2 (OTUB2A) (Homo sapiens, UniProt Q96DC9).
T3 construct: full length residues 1-234, E. coli BL21(DE3)-R3, His tag removed by TEV, construct 27312 Da
T3 sequence (Q96DC9 1-234): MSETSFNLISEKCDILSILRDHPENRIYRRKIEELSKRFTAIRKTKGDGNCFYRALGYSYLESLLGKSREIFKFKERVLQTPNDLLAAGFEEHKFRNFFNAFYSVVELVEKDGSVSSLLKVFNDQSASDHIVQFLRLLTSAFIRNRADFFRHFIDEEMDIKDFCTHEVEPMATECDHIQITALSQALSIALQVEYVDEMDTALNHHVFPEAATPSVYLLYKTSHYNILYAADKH
Details: Intact protein LC/MS covalent labelling, fragments in pools of five, 200 uM each, 4 °C. To be noted: 24 h, 4 °C, pool of five; 200 µM; covalent.

The target in another data set is T4, PCAF (Homo sapiens, UniProt Q92831).
T4 construct: gene KAT2B
T4 sequence (Q92831 whole entry): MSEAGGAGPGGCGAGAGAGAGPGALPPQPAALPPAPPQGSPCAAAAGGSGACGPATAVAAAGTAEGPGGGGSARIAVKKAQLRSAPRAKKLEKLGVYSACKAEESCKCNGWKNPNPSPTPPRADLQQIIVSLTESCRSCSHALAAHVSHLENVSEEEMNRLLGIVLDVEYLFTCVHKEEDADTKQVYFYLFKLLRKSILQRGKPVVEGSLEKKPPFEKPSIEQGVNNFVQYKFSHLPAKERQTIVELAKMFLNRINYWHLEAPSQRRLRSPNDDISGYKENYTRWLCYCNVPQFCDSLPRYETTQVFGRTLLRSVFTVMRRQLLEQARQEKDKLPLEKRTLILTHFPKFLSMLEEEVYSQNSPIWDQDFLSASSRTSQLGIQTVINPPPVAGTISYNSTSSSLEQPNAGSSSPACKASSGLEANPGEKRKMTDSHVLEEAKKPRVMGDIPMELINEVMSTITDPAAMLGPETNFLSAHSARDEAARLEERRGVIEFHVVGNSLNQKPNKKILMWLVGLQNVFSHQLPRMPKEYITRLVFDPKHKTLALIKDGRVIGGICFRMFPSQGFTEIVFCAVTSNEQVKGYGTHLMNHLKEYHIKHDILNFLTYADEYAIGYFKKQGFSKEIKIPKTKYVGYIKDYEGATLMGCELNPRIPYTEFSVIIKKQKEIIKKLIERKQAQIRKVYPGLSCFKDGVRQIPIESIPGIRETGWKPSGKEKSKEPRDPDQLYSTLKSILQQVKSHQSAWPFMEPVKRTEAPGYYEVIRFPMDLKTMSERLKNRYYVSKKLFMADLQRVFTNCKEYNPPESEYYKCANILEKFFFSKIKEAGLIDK
Details: Intact protein LC/MS covalent labelling, fragments in pools of five, 200 uM each, 4 °C. To be noted: 24 h, 4 °C, pool of five; 200 µM; covalent.

Data set [1] is described as follows: in vitro. More on the design: species or system CCD841, HEK293. To be noted: human, hb2 cells, read-out: HB-2 Cells Viability (%).
A short description of data set [2]: in vitro. More on the design: species or system HB2, HEK293. To be noted: human, ccd841 cells.
Data set [3] is described as follows: in vitro. More on the design: species or system HB2, CCD841. To be noted: human, hek293 cells.

T1 sequence (P02769 whole entry): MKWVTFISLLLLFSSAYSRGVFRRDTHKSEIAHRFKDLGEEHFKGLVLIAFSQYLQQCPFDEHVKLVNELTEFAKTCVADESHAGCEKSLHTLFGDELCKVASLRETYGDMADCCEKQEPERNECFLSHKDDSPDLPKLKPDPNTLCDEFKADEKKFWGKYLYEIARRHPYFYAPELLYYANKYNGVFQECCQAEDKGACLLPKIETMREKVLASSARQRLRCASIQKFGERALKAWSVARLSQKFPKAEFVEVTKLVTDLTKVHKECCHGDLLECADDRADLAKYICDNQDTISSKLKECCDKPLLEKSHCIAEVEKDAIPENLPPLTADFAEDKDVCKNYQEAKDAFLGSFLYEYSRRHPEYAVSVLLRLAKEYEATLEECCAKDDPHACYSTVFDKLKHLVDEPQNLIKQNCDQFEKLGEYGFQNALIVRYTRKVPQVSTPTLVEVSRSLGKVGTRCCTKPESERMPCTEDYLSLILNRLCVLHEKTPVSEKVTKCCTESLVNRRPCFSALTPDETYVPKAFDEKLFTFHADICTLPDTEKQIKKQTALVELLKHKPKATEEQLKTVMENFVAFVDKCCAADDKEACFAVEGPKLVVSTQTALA
T2 sequence (P0C024 14-235): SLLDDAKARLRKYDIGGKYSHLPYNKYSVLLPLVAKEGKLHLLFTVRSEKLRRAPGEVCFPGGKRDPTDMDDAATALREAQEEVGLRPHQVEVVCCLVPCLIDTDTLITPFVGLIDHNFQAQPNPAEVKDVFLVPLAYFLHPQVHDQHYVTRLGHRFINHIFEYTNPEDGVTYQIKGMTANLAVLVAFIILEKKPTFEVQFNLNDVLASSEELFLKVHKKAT

Compound `CN(C(=O)CCl)C1=CCCC1` [PCM-0102869] registered a BSA at BSA of 0. The same compound showed an NUDT7 on NUDT7 of 0. For the same compound, the OTUB2 at OTUB2 (OTUB2A) turned out to be 0. For the same compound, the PCAF at PCAF was 0. For the same compound, the viability at 48 h, 10 µM is 111% in “in vitro [1]”, 110% in the data set “in vitro [2]” and 101% in the data set “in vitro [3]”.

Turning to `O=C(CCl)N1CCOCC1C1CC1` (centres unmarked) [PCM-0102870], the BSA at BSA was 0. Further, the NUDT7 on NUDT7 worked out at 0.17. Also, the OTUB2 at OTUB2 (OTUB2A) is listed as 0. Further, at PCAF, the PCAF turned out to be 0. Also, the figures for the viability at 48 h, 10 µM in the data set “in vitro [1]”, in the data set “in vitro [2]” and in “in vitro [3]” were 80.6%, 89.5% and 56.7%, respectively.

At BSA, `Cc1csc(NC(=O)CCl)n1.Cl` [PCM-0102872] registered a BSA of 0. On NUDT7, this compound came in with an NUDT7 of 0.16. On OTUB2 (OTUB2A), this compound displayed an OTUB2 of 0. Further, the PCAF on PCAF was found to be 0. For the same compound, the values for the viability at 48 h, 10 µM in “in vitro [1]”, in “in vitro [2]” and in “in vitro [3]” were 90.4%, 94.9% and 91.9%, respectively.

`O=C(CCl)Nc1cc(F)cc(F)c1` [PCM-0102874]: the BSA at BSA was determined as 0. Besides, the NUDT7 on NUDT7 was 0.18. This compound had an OTUB2 at OTUB2 (OTUB2A) of 0. The compound further gave a PCAF on PCAF of 0. The viability at 48 h, 10 µM in “in vitro [1]” was determined as 14.3%; in the data set “in vitro [2]”, 58.3%; in the data set “in vitro [3]” it was 3.1%.

For `N#Cc1ccc(NC(=O)CCl)cc1` [PCM-0102875], the BSA on BSA was determined as 0. For the same compound, the NUDT7 on NUDT7 was 0.14. This compound also showed an OTUB2 at OTUB2 (OTUB2A) of 0.08. The PCAF on PCAF turned out to be 0. The figures for the viability at 48 h, 10 µM in “in vitro [1]”, in “in vitro [2]” and in the data set “in vitro [3]” were 36.6%, 46% and 4.3%, respectively.

For the compound `CN(C)C(=O)c1ccc(NC(=O)CCl)cc1` [PCM-0102877], the BSA on BSA is 0. The same compound registered an NUDT7 on NUDT7 of 0. The compound also came in with an OTUB2 at OTUB2 (OTUB2A) of 0. This compound also came in with a PCAF at PCAF of 0. Moreover, the figures for the viability at 48 h, 10 µM in the data set “in vitro [1]”, in the data set “in vitro [2]” and in the data set “in vitro [3]” were 67.6%, 61.7% and 30.5%, respectively.

With `Cc1cc(C)c(C(C)NC(=O)CCl)cc1C` (centres unmarked) [PCM-0102879], the BSA on BSA turned out to be 0. The NUDT7 on NUDT7 is 0. At OTUB2 (OTUB2A), this compound yielded an OTUB2 of 0.17. Moreover, the PCAF on PCAF is 0. Also, the viability at 48 h, 10 µM stood at 87.3% in the data set “in vitro [1]”, 83.7% in “in vitro [2]” and 59.6% in “in vitro [3]”.

Take `COC(=O)C1CN(C(=O)CCl)c2ccccc2O1` (centres unmarked) [PCM-0102880]: on BSA, the BSA is listed as 0. The compound also yielded an NUDT7 at NUDT7 of 0. Further, the OTUB2 on OTUB2 (OTUB2A) was determined as 0.11. The compound also yielded a PCAF at PCAF of 0. In addition, the figures for the viability at 48 h, 10 µM in “in vitro [1]”, in “in vitro [2]” and in the data set “in vitro [3]” were 112%, 96.4% and 97.5%, respectively.

Regarding `O=C(CCl)NCC1COc2ccccc2O1` (centres unmarked) [PCM-0102881], the BSA at BSA was found to be 0. This compound gave an NUDT7 on NUDT7 of 0. The compound further came in with an OTUB2 on OTUB2 (OTUB2A) of 0.39. This compound yielded a PCAF at PCAF of 0. The figures for the viability at 48 h, 10 µM in the data set “in vitro [1]”, in the data set “in vitro [2]” and in the data set “in vitro [3]” were 81%, 76.2% and 56.3%, respectively.

On BSA, `C=CC(=O)NC1CNC(=O)C1` (centres unmarked) [PCM-0102882] had a BSA of 0. This compound also registered an NUDT7 on NUDT7 of 0. At OTUB2 (OTUB2A), this compound came in with an OTUB2 of 0. At PCAF, this compound yielded a PCAF of 0. For the same compound, the viability at 48 h, 10 µM in the data set “in vitro [1]” was found to be 108%; in the data set “in vitro [2]”, 99.1%; in “in vitro [3]” it was 97.3%.

`Cc1ccccc1NC(=O)CCl` [PCM-0102887] had a BSA at BSA of 0. The NUDT7 on NUDT7 amounted to 0. This compound also came in with an OTUB2 at OTUB2 (OTUB2A) of 0. Further, the PCAF on PCAF turned out to be 0. In addition, the figures for the viability at 48 h, 10 µM in “in vitro [1]”, in “in vitro [2]” and in “in vitro [3]” were 90.2%, 69.6% and 55.1%, respectively.

As usually defined, the viability is a read-out of living cells in per cent, often relative to untreated cells.
